Test results as given in US5968823A, “Glycine transporter-transfected avian cells and uses thereof” (Allelix Neuroscience Inc., priority 1998, dated 1999).
Like-named read-outs stand apart in the source and are kept apart here.

How the values were obtained:
[1] = molecular target: T1, GlyT-2 (Rattus norvegicus, UniProt P58295); assay: Inhibition of [3H]glycine uptake in QT-6 cells transiently transfected with GlyT-2; type: cell-based
T1 construct: expressed in transfected cells; host or cells: QT-6 quail fibroblast cells (ATCC CRL-1708), transient transfection
T1 sequence (P58295 1-799): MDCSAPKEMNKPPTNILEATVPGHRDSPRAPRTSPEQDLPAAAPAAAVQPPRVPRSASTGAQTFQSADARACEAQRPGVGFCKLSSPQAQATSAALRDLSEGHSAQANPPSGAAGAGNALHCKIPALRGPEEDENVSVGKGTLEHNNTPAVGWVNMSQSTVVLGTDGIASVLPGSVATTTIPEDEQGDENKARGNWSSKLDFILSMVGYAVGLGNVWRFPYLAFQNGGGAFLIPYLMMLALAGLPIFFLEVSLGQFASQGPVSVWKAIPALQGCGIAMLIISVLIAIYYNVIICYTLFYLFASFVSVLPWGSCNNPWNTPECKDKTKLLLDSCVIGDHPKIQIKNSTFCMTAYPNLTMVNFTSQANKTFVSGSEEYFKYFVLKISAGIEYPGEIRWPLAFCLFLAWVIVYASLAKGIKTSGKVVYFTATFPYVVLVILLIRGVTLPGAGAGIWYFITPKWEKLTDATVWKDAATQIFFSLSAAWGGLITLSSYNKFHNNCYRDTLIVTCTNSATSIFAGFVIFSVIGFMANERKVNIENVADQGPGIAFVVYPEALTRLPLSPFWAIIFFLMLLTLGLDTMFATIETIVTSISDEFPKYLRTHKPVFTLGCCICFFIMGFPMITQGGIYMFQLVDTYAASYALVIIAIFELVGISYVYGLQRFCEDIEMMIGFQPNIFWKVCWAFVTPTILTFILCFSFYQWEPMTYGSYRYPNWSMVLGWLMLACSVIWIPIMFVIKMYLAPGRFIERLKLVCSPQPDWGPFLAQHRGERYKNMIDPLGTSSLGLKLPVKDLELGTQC
Procedure: (§1) This example sets forth methods and materials used for growing and transfecting QT-6 cells.
(§2) The following four day procedure for the tranfections was used:
(§3) On day 1, QT-6 cells were plated at a density of 1×10^6 cells in 10 ml of complete QT-6 medium in 100 mm dishes.
(§4) On day 2, the medium was aspirated and the cells were washed with 10 ml of PBS followed by 10 ml of TBS. The TBS was aspirated, then 1 ml of the DEAE/DNA mix was added to the plate. The plate was swirled in the hood every 5 minutes. After 30 minutes, 8 ml of 80 μM chloroquine in QT-6 medium was added and the culture was incubated for 2.5 hours at 37° C. and 5% CO2. The medium was then aspirated and the cells were washed two times with complete QT-6 medium, then […] complete QT-6 medium was added and the cells were returned to the incubator.
(§5) On day 3, the cells were removed with trypsin/EDTA as described above, and plated into the wells of 96-well assay plates at approximately 2×10^5 cells/well.
(§6) On day 4, glycine transport was assayed as described in Example 2.
(§7) This example illustrates a method for the measurement of glycine uptake by transfected cultured cells.
(§8) Transient GlyT-transfected cells or control ("mock") cells grown in accordance with Example 1 were washed three times with HEPES buffered saline (HBS). The mock cells were treated precisely as the GlyT-transfected cells except that the transfection procedure omitted any cDNA. The cells were incubated 10 minutes at 37° C., after which a solution was added containing 50 nM [^3 H] glycine (17.5 Ci/mmol) and either (a) no potential competitor, (b) 10 mM nonradioactive glycine or (c) a concentration of a candidate drug. […] The cells were then incubated another 20 minutes at 37° C., after which the cells were aspirated and washed three times with ice-cold HBS. The cells were harvested, scintillant was added to the cells, the cells were shaken for 30 minutes, and the radioactivity in the cells was counted using a scintillation counter. Data were compared between the cells contacted or not contacted by a candidate agent, and between cells having GlyT-1 activity versus cells having GlyT-2 activity, depending on the assay being conducted.

[2] = molecular target: T2, GlyT-1c (Homo sapiens, UniProt P48067); assay: Inhibition of [3H]glycine uptake in QT-6 cells transiently transfected with GlyT-1c; type: cell-based; details: for selectivity GlyT-1c relative to GlyT-2: comparison of pIC50 at GlyT-1c and GlyT-2 in transfected QT-6 cells
T2 construct: expressed in transfected cells; host or cells: QT-6 quail fibroblast cells (ATCC CRL-1708), transient transfection
T2 sequence (P48067 1-706): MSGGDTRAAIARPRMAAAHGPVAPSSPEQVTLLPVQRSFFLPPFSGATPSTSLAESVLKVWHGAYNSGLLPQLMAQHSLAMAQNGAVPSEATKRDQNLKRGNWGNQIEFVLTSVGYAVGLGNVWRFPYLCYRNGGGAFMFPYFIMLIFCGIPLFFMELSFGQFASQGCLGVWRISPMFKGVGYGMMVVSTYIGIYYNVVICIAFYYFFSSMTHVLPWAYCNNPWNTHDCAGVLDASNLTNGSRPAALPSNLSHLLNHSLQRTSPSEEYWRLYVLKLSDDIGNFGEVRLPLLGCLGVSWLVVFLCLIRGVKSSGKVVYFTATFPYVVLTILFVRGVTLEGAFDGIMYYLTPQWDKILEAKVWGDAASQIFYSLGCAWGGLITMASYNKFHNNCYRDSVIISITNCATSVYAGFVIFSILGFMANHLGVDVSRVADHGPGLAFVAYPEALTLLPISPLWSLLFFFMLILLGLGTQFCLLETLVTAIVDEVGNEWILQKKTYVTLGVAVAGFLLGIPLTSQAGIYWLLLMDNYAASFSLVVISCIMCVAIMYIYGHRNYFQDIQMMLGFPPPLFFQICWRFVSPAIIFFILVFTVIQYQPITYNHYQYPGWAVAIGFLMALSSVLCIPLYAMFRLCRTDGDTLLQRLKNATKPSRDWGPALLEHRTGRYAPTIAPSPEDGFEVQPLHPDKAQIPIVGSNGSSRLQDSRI
Procedure: as §1
The human GlyT-1c (hGlyT-1c) clone used contains the sequence of hGlyT-1c [SEQ ID NO:3] from nucleotide position 213 to 2336 cloned into the pRc/CMV vector (Invitrogen) as a Hind III-Xba I fragment as described in Kim et al., supra. The Hind III-Xba fragment of hGlyT-1c from this clone was then subcloned into the pRc/RSV vector. Transfection experiments were performed with GlyT-1c in both the pRc/RSV and pRc/CMV expression vectors.
as §2, §3, §4, §5, §6, §7, §8

[3] = molecular target: glycine site on the NMDA receptor; assay: [3H]MK-801 binding test operated to identify antagonists of the NMDA-glycine site; details: rat cortex/hippocampus membranes; glutamate 10 μM, glycine 200 nM, 2.5 nM [3H]MK-801, 1 hour room temperature; FIG. 2A; read-out: concentration of antagonist resulting in about a 50% effect on [3H]MK-801 binding
Procedure: Sterner and Calligaro, Soc. Neurosci.
The membrane preparation included the following steps:
1. Sacrifice and decapitate four rats; remove cortices and hippocampi.
3. Centrifuge tissue at 1000×g, 10 minutes. Save supernatant.
4. […] Discard the supernatant.
5. […] Stir the suspension on ice for one hour.
6. […] Leave on ice for 20 minutes.
The final volume of the assay was 200 μl.

[4] = test system: NMDA receptor; assay: Calcium flux (45Ca++ accumulation) in primary neuronal cortical cell cultures; type: cell-based, rat; details: L-689,560 50 μM with NMDA 500 μM; 10 minutes room temperature; FIG. 3
Procedure: A functional ion-flux assay used to measure the effect of compounds identified by the present invention relates to the ability to enhance or inhibit calcium flux through the NMDA receptor. This test is performed on suitable cell cultures that have membrane-bound NMDA receptors and glycine transporters. Such cells include neuronal cells generally, including those of the central nervous system, including brain, and cell lines derived therefrom, and any other cell that has been induced or transfected to express NMDA receptors. Calcium used in such a test is commonly the ^45 Ca isotope, although other calcium measuring techniques can be used as well, such as calcium-associated fluorescence and the like. However the calcium is monitored, calcium flux is enhanced or inhibited as a result of the discrete addition of a compound of the present invention. An advantage of this system is that it allows one to monitor the net effect on NMDA receptor function of a compound that interacts with the glycine site on the NMDA receptor and the glycine transporter.
This example illustrates a protocol for measuring calcium flux in primary neuronal cells, which is an indication of NMDA receptor activation. […]
The tissue was chopped with a scalpel and then triturated with a glass pipet that had been fire polished. […] Cells were counted in a suitable counting chamber. […]

[5] = molecular target: glycine site on the NMDA receptor; details: read-out: concentration of agonist resulting in about a 50% effect on [3H]MK-801 binding; rat cortex/hippocampus membranes; glutamate 10 μM, 2.5 nM [3H]MK-801, 1 hour room temperature; FIG. 2B
Procedure: In particular, compounds having agonist activity in this assay enhance MK-801 binding; conversely, compounds having antagonist activity inhibit MK-801 binding.
Preparation of membranes for the binding test required application of a series of standard methods. Unless otherwise specified, tissues and homogenates were kept on ice and centrifugations were conducted at 4° C. Homogenizations were conducted with an effort to minimize resulting rise in tissue/homogenate temperature. The membrane preparation included the following steps:
Homogenize tissue in twenty volumes of 0.32 M sucrose/5 mM Tris-Acetate (pH 7.4) with 20 strokes of a glass/teflon homogenizer.
Centrifuge tissue at 1000×g, 10 minutes. Save supernatant. Resuspend pellet in small volume of buffer and homogenize again. Centrifuge the homogenized pellet and combine the supernatant with the previous supernatant.
Centrifuge the combined supernatants at 40,000×g, for 30 minutes. Discard the supernatant. […]
The assay was started by the addition of 2.5 nM [^3 H]MK-801 (23.9 Ci/mmol), which binds to the ion channel associated with NMDA receptors. […] Bound radioactivity was separated from free by filtration, using a TOMTEC harvester. Antagonist activity was indicated by decreasing radioactivity associated with the NMDA receptor with increasing concentration of the tested ligand.

[6] = QT-6 cells transfected with GlyT-2, 50 nM [3H]glycine, 20 min at 37° C, read-out: Effect Via GlyT-2, pIC50 (converted)
[7] = QT-6 cells transfected with GlyT-1c, 50 nM [3H]glycine, 20 min at 37° C, read-out: Effect Via GlyT-1c, pIC50 (converted)

Compound | IC50 [2, 7] [µM] | selectivity GlyT-1c relative to GlyT-2 [2] | IC50 [1] [µM] | IC50 [2] [µM] | further results
Clc1ccc(C(c2ccc(Cl)cc2)n2cc[n+](CC(OCc3ccc(Cl)cc3Cl)c3ccc(Cl)cc3Cl)c2)cc1 (stereo not shown) [ZA] | 0.912 | selective for GlyT-1c relative to GlyT-2 | – | – | IC50 [1, 6]: 3.09 µM
CN1CCC(=C2c3ccccc3CCc3ccccc32)CC1 [ZF] | 21.4 | reverse selectivity | – | – | IC50 [1, 6]: 14.5 µM
CSc1ccc2c(c1)N(CCC1CCCCN1C)c1ccccc1S2 (stereo not shown) [ZD] | 9.55 | – | – | – | –
CC(NCCC(c1ccccc1)c1ccccc1)c1ccccc1 (stereo not shown) [ZE] | – | selective for GlyT-1c relative to GlyT-2 | 20.9 | 12.9 | –
O=C(Nc1ccccc1)N[C@@H]1C[C@@H](C(=O)O)Nc2cc(Cl)cc(Cl)c21 (relative stereo) [L-689,560] | – | – | – | – | IC50 [3]: ~0.5 µM; blockade of NMDA-caused accumulation of 45Ca++ [4]: blocked
CC(Cc1ccccc1)NCCC(c1ccccc1)c1ccccc1 (stereo not shown) [ZC] | – | selective for GlyT-1c relative to GlyT-2 | 14.1 | 6.46 | –
NCC(=O)O [glycine] | – | – | – | – | EC50 [5]: ~1 µM
CC(C)(C)c1ccc(C(O)CCCN2CCC(C(O)(c3ccccc3)c3ccccc3)CC2)cc1 (stereo not shown) [ZB] | – | selective for GlyT-1c relative to GlyT-2 | 17 | 4.27 | –
